The structures appear in SMILES notation. Where “and” joins values, the source holds several entries; their conditions need not be identical. Identical values can stand only once. Toxic doses and inconclusive results are not listed.

This assay has as its system P388 leukemia ip, CD2F1 mice, survival T/C. Nature of the assay: NCI In Vivo Anticancer Drug Screen. Data for tumor model P388 Leukemia (intraperitoneal) in CD2F1 (CDF1) mice. The conditions noted are these: endpoint: median survival time, higher = longer survival. The essentials:
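Mice carrying the transplanted tumor received test compound or vehicle. Survival was recorded in each group, and the value is the treated-group measurement divided by that of the vehicle-treated control group.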

[1] abbreviates: dose: 50.0 mg/kg/injection, schedule: Q01DX009 (ip), vehicle: saline with Tween-80.
Setting [2] is: dose: 60.0 mg/kg/injection, schedule: Q01DX005 (ip), vehicle: saline with Tween-80.
[3] abbreviates: dose: 120.0 mg/kg/injection, schedule: Q01DX005 (ip), vehicle: saline with Tween-80.
Setting [4] is: dose: 240.0 mg/kg/injection, schedule: Q01DX005 (ip), vehicle: saline with Tween-80.

Consider `C[n+]1c(-c2cccc3ccccc23)c2cc(N)ccc2c2ccccc21`, for which the T/C (dose: 0.78 mg/kg/injection, schedule: Q01DX009 (ip), vehicle: water) was 110 % of control; the T/C (dose: 1.56 mg/kg/injection, schedule: Q01DX009 (ip), vehicle: saline) is 103 % of control and 113 % of control; the T/C (dose: 1.56 mg/kg/injection, schedule: Q01DX009 (ip), vehicle: water) is 119 % of control; the T/C (dose: 3.12 mg/kg/injection, schedule: Q01DX009 (ip), vehicle: saline) was 105 % of control; the T/C (dose: 6.25 mg/kg/injection, schedule: Q01DX009 (ip), vehicle: saline) was 112 % of control and 122 % of control; the T/C (dose: 12.0 mg/kg/injection, schedule: Q01DX009 (ip), vehicle: water) was 110 % of control. Further, the T/C (dose: 12.5 mg/kg/injection, schedule: Q01DX009 (ip), vehicle: saline) was 117 % of control and 121 % of control.
For the molecule `O=C(NC(Cc1ccccc1)C(=O)CBr)OCc1ccccc1` (stereo unspecified), the T/C (dose: 12.5 mg/kg/injection, schedule: Q01DX001 (ip), vehicle: saline with Tween-80) is 100 % of control; the T/C (dose: 25.0 mg/kg/injection, schedule: Q01DX001 (ip), vehicle: saline with Tween-80) is 104 % of control; the T/C (dose: 50.0 mg/kg/injection, schedule: Q01DX001 (ip), vehicle: saline with Tween-80) was 109 % of control.
On to `Cc1cccc(-c2cc3cccnc3nc2NN=O)c1C`, for which the T/C is, setting by setting: (dose: 3.12 mg/kg/injection, schedule: Q01DX009 (ip), vehicle: water) 106 % of control; (dose: 6.25 mg/kg/injection, schedule: Q01DX009 (ip), vehicle: water) 105 % of control and 122 % of control; (dose: 12.5 mg/kg/injection, schedule: Q01DX009 (ip), vehicle: water) 111 % of control; (dose: 50.0 mg/kg/injection, schedule: Q01DX009 (ip), vehicle: water) 106 % of control and 121 % of control; (dose: 100.0 mg/kg/injection, schedule: Q01DX009 (ip), vehicle: water) 93 % of control.
Regarding `CCC(CC)N(C)C(C)(C)CO`, the T/C is, setting by setting: (dose: 50.0 mg/kg/injection, schedule: Q04DX003 (ip), vehicle: saline sonified) 96 % of control; (dose: 100.0 mg/kg/injection, schedule: Q04DX003 (ip), vehicle: saline sonified) 100 % of control.
On to `CC1(C)CNC(=S)N1C1CCCCC1`, for which the T/C (dose: 50.0 mg/kg/injection, schedule: Q01DX009 (ip), vehicle: suspension in saline) was 97 % of control; the T/C (dose: 100.0 mg/kg/injection, schedule: Q01DX009 (ip), vehicle: suspension in saline) is 104 % of control; the T/C (dose: 200.0 mg/kg/injection, schedule: Q01DX009 (ip), vehicle: suspension in saline) is 93 % of control.
Turning to `COc1ccc2c(c1)C(=O)C=C(c1ccccc1)S2(=O)=O`, the T/C by setting is: (dose: 60.0 mg/kg/injection, schedule: Q01DX005 (ip), vehicle: Klucel (hydroxypropylcellulose) (HPC)) 110 % of control; (dose: 120.0 mg/kg/injection, schedule: Q01DX005 (ip), vehicle: Klucel (hydroxypropylcellulose) (HPC)) 110 % of control; (dose: 240.0 mg/kg/injection, schedule: Q01DX005 (ip), vehicle: Klucel (hydroxypropylcellulose) (HPC)) 117 % of control.
Take `O=c1c(-c2ccc3c(c2)OCO3)coc2c3c(ccc12)OCO3`: the T/C is 93 % of control (dose: 8.0 mg/kg/injection, schedule: Q01DX005 (ip), vehicle: Klucel (hydroxypropylcellulose) (HPC)); 100 % of control (dose: 16.0 mg/kg/injection, schedule: Q01DX005 (ip), vehicle: Klucel (hydroxypropylcellulose) (HPC)); 94 % of control (dose: 32.0 mg/kg/injection, schedule: Q01DX005 (ip), vehicle: Klucel (hydroxypropylcellulose) (HPC)); 88 % of control (dose: 64.0 mg/kg/injection, schedule: Q01DX005 (ip), vehicle: Klucel (hydroxypropylcellulose) (HPC)).
Regarding `O=Cc1ccc(N2OC(c3ccc([N+](=O)[O-])cc3)C(c3ccc([N+](=O)[O-])cc3)C2c2ccc([N+](=O)[O-])cc2)cc1` (stereo unspecified), the T/C by setting is: (dose: 50.0 mg/kg/injection, schedule: Q01DX009 (ip), vehicle: acetone) 96 % of control; (dose: 100.0 mg/kg/injection, schedule: Q01DX009 (ip), vehicle: acetone) 93 % of control; (dose: 200.0 mg/kg/injection, schedule: Q01DX009 (ip), vehicle: acetone) 100 % of control.
Turning to `CCN(Cc1ccc(C(=O)OC)cc1)c1cccc(NC(C)=O)c1`, the T/C by setting is: under setting [1], 98 % of control; (dose: 100.0 mg/kg/injection, schedule: Q01DX009 (ip), vehicle: saline with Tween-80) 100 % of control; (dose: 200.0 mg/kg/injection, schedule: Q01DX009 (ip), vehicle: saline with Tween-80) 99 % of control.
Take `CC(C)N(Cc1ccccc1)S(=O)(=O)c1n[nH]c(C(C)(C)C)n1`: the T/C was 94 % of control (dose: 50.0 mg/kg/injection, schedule: Q01DX005 (ip), vehicle: saline with Tween-80) and 86 % of control (dose: 100.0 mg/kg/injection, schedule: Q01DX005 (ip), vehicle: saline with Tween-80).
For the molecule `Cn1nc(-c2ccc(Cl)c(Cl)c2)nc2c(=O)n(C)c(=O)nc1-2`, the T/C was 102 % of control (dose: 12.5 mg/kg/injection, schedule: Q01DX001 (ip), vehicle: Klucel (hydroxypropylcellulose) (HPC)); 107 % of control (dose: 25.0 mg/kg/injection, schedule: Q01DX001 (ip), vehicle: Klucel (hydroxypropylcellulose) (HPC)); 103 % of control and 114 % of control (dose: 50.0 mg/kg/injection, schedule: Q01DX001 (ip), vehicle: Klucel (hydroxypropylcellulose) (HPC)).
Regarding `COc1ccc2cc3[n+](cc2c1O)CCc1cc2c(cc1-3)OCO2`, the T/C is 99 % of control and 106 % of control (dose: 6.25 mg/kg/injection, schedule: Q01DX005 (ip), vehicle: Klucel (hydroxypropylcellulose) (HPC)); 107 % of control and 96 % of control (dose: 12.5 mg/kg/injection, schedule: Q01DX005 (ip), vehicle: Klucel (hydroxypropylcellulose) (HPC)); 101 % of control and 117 % of control (dose: 25.0 mg/kg/injection, schedule: Q01DX005 (ip), vehicle: Klucel (hydroxypropylcellulose) (HPC)); 111 % of control (dose: 50.0 mg/kg/injection, schedule: Q01DX005 (ip), vehicle: Klucel (hydroxypropylcellulose) (HPC)); 179 % of control (dose: 200.0 mg/kg/injection, schedule: Q01DX005 (ip), vehicle: Klucel (hydroxypropylcellulose) (HPC)).
Take `CCSCCC(N)C(=O)O` (stereo unspecified): the T/C (dose: 12.5 mg/kg/injection, schedule: Q01DX009 (ip), vehicle: saline with Tween-80) was 95 % of control; the T/C (dose: 25.0 mg/kg/injection, schedule: Q01DX009 (ip), vehicle: saline with Tween-80) was 100 % of control; the T/C under setting [1] was 100 % of control; the T/C (dose: 100.0 mg/kg/injection, schedule: Q04DX003 (ip), vehicle: saline with Tween-80) was 104 % of control; the T/C (dose: 200.0 mg/kg/injection, schedule: Q04DX003 (ip), vehicle: saline with Tween-80) was 100 % of control; the T/C (dose: 400.0 mg/kg/injection, schedule: Q04DX003 (ip), vehicle: saline with Tween-80) is 109 % of control.
For the molecule `N/C(=N\O)c1c(Br)n(C2OC(CO)C(O)C2O)c2ncnc(N)c12` (stereo unspecified), the T/C is 109 % of control and 122 % of control under setting [2]; 120 % of control and 122 % of control under setting [3]; 116 % of control under setting [4]; 114 % of control (dose: 480.0 mg/kg/injection, schedule: Q01DX005 (ip), vehicle: saline with Tween-80).
Consider `CC(=O)C(C(C)=O)[N+](=O)[O-].CC(=O)C(C(C)=O)[N+](=O)[O-].[Cu]`, for which the T/C is 100 % of control (dose: 6.25 mg/kg/injection, schedule: Q01DX005 (ip), vehicle: saline with Tween-80) and 105 % of control (dose: 12.5 mg/kg/injection, schedule: Q01DX005 (ip), vehicle: saline with Tween-80).
As to `CCCCCCCCCCN(CCCCCCCCCC)C1CC(OC2CC(O)(C(C)O)Cc3c(O)c4c(c(O)c32)C(=O)c2c(OC)cccc2C4=O)OC(C)C1O` (stereo unspecified), the T/C reads like this: (dose: 4.7 mg/kg/injection, schedule: Q04DX003 (ip), vehicle: water) 99 % of control; (dose: 9.4 mg/kg/injection, schedule: Q04DX003 (ip), vehicle: water) 99 % of control; (dose: 18.8 mg/kg/injection, schedule: Q04DX003 (ip), vehicle: water) 101 % of control; (dose: 37.5 mg/kg/injection, schedule: Q04DX003 (ip), vehicle: water) 110 % of control; (dose: 75.0 mg/kg/injection, schedule: Q04DX003 (ip), vehicle: water) 101 % of control.
For the molecule `Cc1cn2c(n1)Nc1sc3c(c1C2)CCCC3`, the T/C by setting is: under setting [2], 101 % of control; under setting [3], 103 % of control; under setting [4], 100 % of control.
For the molecule `CN(C)CCCNC(=O)c1cccc2cccc(C(=O)O)c12`, the T/C reads like this: (dose: 60.0 mg/kg/injection, schedule: Q01DX005 (ip), vehicle: saline) 97 % of control; (dose: 120.0 mg/kg/injection, schedule: Q01DX005 (ip), vehicle: saline) 101 % of control; (dose: 240.0 mg/kg/injection, schedule: Q01DX005 (ip), vehicle: saline) 104 % of control.

For the origin of these results see PubChem BioAssay AID330 (DTP/NCI, 2004).
